Columns and labels:
[1] = test system: human PBMCs; experiment: CMV stimulation of PBMCs with ectopic recombinant human CD28, CTLA-4, CD80; cytokine ELISA/multiplex; assay type: cell-based
[2] = test system: human PBMCs; experiment: Lymphocyte clustering of SEB stimulated PBMCs (IncuCyte); assay type: cell-based; details: SEB 1 ng/mL; human IgG control
Protocol: Next, human PBMCs were stimulated with SEB (1 ng/mL) without or in the presence of recombinant human CD28. Human IgG was used as control. Lymphocyte clustering, a hallmark of immune activation was monitored using the IncuCyte® S3 Live-Cell, with pictures taken every 12 hours. […] It is well established that during in-vitro immune response antigen presenting cells (APC) cluster with one another and with other cell types, and clustering is essential for the antigen specific activation of resting lymphocytes.

[3] = test system: autologous monocytes and CD3 T cells; experiment: Autologous monocytes CD3 MLR with CMV peptide, cytokine secretion; assay type: cell-based, human
Protocol: Autologous monocytes CD3 MLR—0.5×10^6 T cells were mixed with 0.5×10^5 monocytes from same CMV reactive donor and stimulated with 0.5 μg/mL CMV peptivator for 6 days at 37° C. with/without the indicated concentration of treatments.
The mixed cells were stimulated for 5 days with CMV peptide (0.5 μg/mL) with and without increasing concentrations of recombinant human sCD28.
The MLR was run as before only with and without sCD28 and with and without an anti-PD1 antibody (MK3475, 5 μg/mL) (FIG. 9B).

[4] = test system: human monocytes; experiment: Stimulation of monocytes with recombinant human CD28 (IDO, PD-L1, PD-L2); assay type: cell-based; details: recombinant human CD28 10 μg/mL
Protocol: Flow Cytometry—Generally, cells were kept on ice during all steps. Prior to staining, 5×10^5 cells were blocked with 50 μg/mL human IgG (Sigma, Cat. No. 14506) in FACS buffer (PBS with 0.1% BSA) for 15 min. Antibodies were used at concentrations recommended by the manufacturer and incubated for 30 min. in the dark. Incubations were done in a volume of 100 μL in 96-well U bottom plates. Cells were washed twice with 200 μL of FACS buffer and transferred to FACS tubes in 150 μL of FACS buffer for analysis. Cells were analyzed on a Gallios Flow Cytometer (Beckman Coulter) using the Kaluza for Gallios Flow Cytometry Acquisition Software.
Stimulation of monocytes with recombinant human CD28—1.5×10^6 monocytes were plated at 24 well plate in RPMI medium with […] IFN gamma (R&D system, Cat. No. 285-IF) in the presence of recombinant human CD28 at the indicated concentrations for 48 hrs. The generated cell populations were tested for the indicated phenotypes by FACS analysis of relevant markers (IDO, PD-L1 and PD-L2) and by analysis of secretion of characteristic cytokines (IL-6).
The enzyme indoleamine 2,3-dioxygenase (IDO) has been implicated in immune modulation through its ability to catabolize the essential amino acid Tryptophan. It is expressed by different immune cells and also by many cancer cells. Tryptophan shortage inhibits T lymphocytes maturation and proliferation, while Kynurenine, the end product of tryptophan catabolism, is also known as immunosuppressive metabolite that promotes immune tolerance in various physiological and pathophysiological conditions. To test the effect of sCD28 on IDO, isolated human monocytes were stimulated for 48 hr with IFNγ (1000 U/mL) in the presence of control human IgG or with recombinant human CD28 (10 μg/mL). After incubation, the monocytes were stained intracellularly for human IDO (FIG. 8E). To facilitate intracellular staining the cells were fixed and permeabilized with BD Cytofix/Cytoperm Buffer Kit. […]

[5] = test system: human PBMCs; experiment: SEB or CMV stimulated PBMCs with anti-PD1 and/or soluble CD28, cytokine secretion; assay type: cell-based
[6] = test system: PBMCs isolated from cancer patients; experiment: SEB stimulated PBMCs of cancer patients, IFN gamma secretion; assay type: cell-based, human; details: SEB 5 ng/mL, 3 days
[7] = test system: SCC-25 cells; experiment: SCC-25 cancer cell line trans-well co-culture with monocytes, proliferation; assay type: cell-based, human
Protocol: Co-culture of SCC-25 cancer cell line with monocytes in trans-well based assay—4×10^4 SCC-25 cells were plated on the bottom of 24 well plate with 1×10^5 monocytes placed on cell culture insert (Millipore, Cat. No. MCHT241148) with or without indicated treatments for 4 days in starvation media without serum.
Next, cells of the head and neck cancer cell line SCC-25 were incubated either alone or with monocytes in a trans-well assay. SCC-25 cells grown alone were administered IL-6 as a positive control, and indeed cell proliferation, as measured by MTT (FIG. 10D, upper) and as measured by % confluency (FIG. 10D, lower), was increased.

[8] = test system: isolated CD3 human T cells; experiment: CD3 T cells stimulation with anti-CD3 OKT3, IFN gamma secretion; assay type: cell-based; details: OKT3 2 μg/mL, CD80-Fc 2 μg/mL, sCD28 titration
Protocol: T cells stimulation with OKT3—0.1×10^6 isolated CD3 T cells (from healthy donors) were stimulated with indicated amount of anti-CD3 clone OKT3 for 48-72 hr at 37° C. When stated recombinant human CD80-Fc (2 μg/mL, R&D system) was added in soluble form. Antibodies to CD28 or controls were added at the indicated concentration in soluble form.
CD80 is one of the two main ligands for mCD28 along with CD86. The extracellular domain of CD80 fused to an Fc moiety has been used as an immune stimulatory molecule and is under investigation as a cancer therapy. In order to examine the effect of sCD28 on CD80-Fc efficacy, isolated CD3 human T cells were stimulated with plate bound anti-CD3 antibody (OKT3, 2 μg/mL) in the presence of 2 μg/mL soluble recombinant human CD80-Fc.

[9] = test system: H22 hepatocellular carcinoma cells; experiment: H22 syngeneic mouse model, tumor growth; assay type: in vivo; details: Balb/c mice, H22 allograft, with anti-PD-1 therapy
Excerpt: The closest option is to administer recombinant sCD28 to mice to mimic a situation of elevated sCD28 levels. This was investigated in a H22 syngeneic mouse model. Balb/c fully immunocompetent mice received an allograft of H22 hepatocellular carcinoma cells.

[10] = test system: human PBMCs; experiment: Soluble CD28 generation by SEB or CMV stimulated PBMCs, human CD28 ELISA; assay type: cell-based; details: stimulated cells with protease inhibitors; sandwich ELISA
Protocol: ELISA—Commercial ELISA kits were used for quantitation of the amount of human interferon-gamma (Biolegend, Cat. No. 430103), human interleukin 2 (Biolegend, Cat. No. 431802), human interleukin 6 (Biolegend, Cat. No. 430502), human interleukin 10 (Biolegend, Cat. No. 430603), human […] beta 1 (Biolegend, Cat. No. 436708), human interleukin beta 1 (Biolegend, Cat. No. 437004) and human CD28 (R&D system, Cat. No. DY342). Cell Proliferation and viability (MTT assay) was conducted according to manufacturer instructions (Roche, cat #11465007001). Kynurenine (IDO activity) ELISA kit was conducted according to manufacturer instructions (ImmuSmo Cat #BA E-2200).
Protease Inhibitors—Protease inhibitors were added at the indicated concentrations at the start of each experiment. In week long assays another portion of the inhibitors was added after 3 days at the final concentration. […] Where mentioned the protease cocktail was composed with a mixture of TAPI-1 and GM6001 at equimolar ratio.
SEB or CMV activation of PBMCs for the generation of soluble CD28—0.3×10^6 PBMCs were stimulated with 0.5 ng/mL SEB (Sigma, Cat. No. S4881) for 5-7 days at 37° C. with/without the indicated concentration of various protease inhibitors in 48 well plate. Alternatively, 0.1×10^6 PBMCs were stimulated with 0.5 ng/mL SEB in 96 well plate format assay. For CMV stimulation 0.5×10^6 PBMCs were stimulated with 0.5 μg/mL CMV peptivator (Milteny Biotec, Cat. No. 130-093-435) for 2-5 days at 37° C. with/without the indicated concentration of various protease inhibitors in a 96 well plate. For continuous shedding experiments PBMC were stimulated with SEB or CMV in 24 well plate for 24 hr, cells were taken and washed three times with RPMI without stimulant and plated again in a 96 well plate. Samples were taken at indicated times and put under freezing conditions until examination for soluble CD28.

[11] = test system: human PBMCs; experiment: Viability of SEB stimulated PBMCs with ADAM inhibitors (MTT assay); assay type: cell-based; details: SEB 1 ng/mL, inhibitor 0.01-1 μM, with vs without inhibitor

## sCD28: recombinant human CD28 lacking the transmembrane and cytoplasmic domains
[1]; CMV 0.5 μg/mL
  IFN gamma secretion: dose-dependent inhibition of IFN gamma secretion
  IL-6 secretion: increase IL-6 cytokine secretion
  interleukin-10 secretion: elevation
[1]; CMV peptide 3 days, constant sCD28, CD80-Fc titration
  CD80-Fc amount needed for immune response: an increased amount of CD80-Fc was required
[2]
  lymphocyte cluster formation: diminish the amount and size of cluster formation
[3]; CMV peptide 0.5 μg/mL
  IFN gamma secretion: inhibit IFN gamma secretion
  TGF beta secretion: increasing the secretion
[3]; CMV peptide 0.5 μg/mL, 5 days
  IL-1B secretion: increasing the secretion
  IL-10 secretion: increasing the secretion
[3]; MK3475 5 μg/mL
  effect of MK-3475 in the presence of sCD28: significantly reduced
[4]; IFNγ 1000 U/mL 48 hours
  PD-L1 expression on monocytes: upregulated
  PD-L2 expression on monocytes: upregulated
[4]; IFNγ 1000 U/mL 48 hr
  IDO expression in monocytes: strongly enhanced IDO expression
[5]; sCD28 2 and 10 μg/mL with MK3475 5 μg/mL
  effect on immune activation by MK-3475: abrogated completely this immune activation effect
[6]
  effect on MK-3475 activity: rendered the effect of MK-3475 nonexistent
[6]; with or without MK-3475
  concentration of human IFN gamma in the supernatant: greatly reduced
[7]; SCC-25 coculture with monocytes
  cell proliferation (MTT, % confluency): by far the greatest increase
[8]
  effect on CD80-Fc activation (IFN gamma secretion): counteracted the secondary activation effect of the CD80-Fc
[9]
  effect on anti-PD-1 therapy (tumor growth): nearly completely abrogated in two of the mice

## IL-6: interleukin-6 administered as a positive control
[7]; SCC-25 cells grown alone
  cell proliferation (MTT, % confluency): increased

## CC#CCOc1ccc(S(=O)(=O)N2CCSC(C)(C)[C@@H]2C(=O)NO)cc1 [TMI-1]
[10]
  sCD28 levels detected with antibodies of the invention: Lower levels of sCD28
[11]
  viability of the immune cells (MTT): no significant difference

## MK-3475: Anti-Human PD-1 pembrolizumab [reference compound]
[3]; CMV peptide 0.5 μg/mL
  IFN gamma secretion: increased IFN gamma secretion
  TGF beta secretion: decreased TGF beta secretion
[5]; PBMC culture, SEB or CMV, 3 days, MK3475 5 μg/mL
  proinflammatory cytokine secretion (IFN gamma and IL-2): increased proinflammatory cytokine secretion
